Measurements taken from US9266922B2, “Antigen peptide and uses thereof” (priority 2011, dated 2016).
Read-outs that look alike come from different tables or passages of the source. Residues, ends and D or L forms follow the SMILES beside them.

Assays:
HLA-A*0201 [1] = biological target: T1, HLA-A*0201 (Homo sapiens, UniProt P04439, D140Y/D185E/D98H/E176V/E277Q/G131W/G231S/I119V/I121R/I166T/I218V/L300P/L318F/N151K/N90K/P208A/P217A/Q86G/Q94H/R138H/R169H/T345S); assay: iTOPIA EDS MHC peptide binding assay; conditions: HLA-A*0201 monomer, relative to positive control peptide, 21° C. for 18 h
Text: MHC peptide binding assay using iTOPIA EDS
Microtiter 96 well plates containing HLA class I MHC monomer loaded with the human β2-microglobulin and a “placeholder” peptide were used to evaluate peptide binding, affinity, and off-rate.
The 502 nectin4 nonapeptides were first evaluated for their ability to bind to each MHC molecule in the peptide binding assay. In this assay, the placeholder peptides were stripped from the MHC class I monomer complexes coated on plastic, which leaves the MHC class I heavy chain available as a binding partner for candidate peptides in the presence of human β2-microglobulin.
Peptide binding was performed at 21° C. for 18 h. Revelation was done using an anti HLA-ABC-FITC mAb that binds to refolded MHC complex conformation. The relative fluorescent intensity was read using a fluorimeter (Molecular Devices, SpectraMax Gemini, Sunnyvale, Calif., USA).
Peptides with a binding>30% of the positive control peptide were selected as “binder” and subsequently analyzed for affinity (ED50) and off-rate (T1/2).

[2] = biological target: T2, HLA A*0201 on CEM.T2 cell line (Homo sapiens, UniProt P04439, D140Y/D185E/D98H/E176V/E277Q/G131W/G231S/I119V/I121R/I166T/I218V/L300P/L318F/N151K/N90K/P208A/P217A/Q86G/Q94H/R138H/R169H/T345S); assay: Cellular dissociation assay on CEM.T2 cells; assay type: cell-based; conditions: after Brefeldin A 1 h and 3 h in serum-free RPMI at 37° C. (4 h)
T2 construct: This cell line expresses HLA A*0201 but is deficient for TAP transporter; endogenous in cells; host or cells: CEM.T2 (T2) cell line
Method: Cellular Dissociation Assay
After HLA-A2*0201 stabilization with peptides at 37° C. for 4 h, T2 cells were incubated for 1 h, in serum-free RPMI containing Brefeldin A (10 μg/ml), an inhibitor of the transport of secretory and lysosomal proteins [G. J. Strous et al., 1993]. After 3 washes, T2 cells were incubated for 3 h in serum-free RPMI at 37° C. Binding was then measured by FACS and after 4 h incubation. Percentage of Residual Binding (% RB) was calculated as follows: […]

[3] = biological target: T2, HLA A*0201 on CEM.T2 cell line; assay: Cellular binding assay, HLA stabilization on CEM.T2 cells; assay type: cell-based; conditions: for CEM.T2 % Binding: 100 μM peptide, 37° C. for 4 h, FACS anti HLA-A2, relative to HBV positive control peptide
Method: The CEM.T2 cell line (T2) is defective in the processing of proteins for presentation by MHC class 1 molecules. This cell line expresses HLA A*0201 but is deficient for TAP transporter. T2 is classically used to assess the Peptide/HLA-A*0201 Complex Stability[H. W. Nijman et al., 1993]
For HLA-A2*0201 stabilization, T2 cells (2×10^5/well) were incubated in serum-free RPMI (Gibco®-France) with 100 μM of selected peptide, at 37° C. for 4 h. Cells were washed two times with PBS supplemented with 1% BSA and stained with fluorescein isothiocyanate-conjugated anti HLA-A2 (Clone BB7.2) (BD Bioscience Pharmingen-France-) at 4° C. for 45 min. After 3 washes, cells were fixed in PBS supplemented with 2% paraformaldehyde and analyzed by FACS (FACScan, BD Bioscience). The percentage of peptide binding was calculated as follows: % Binding={(MFI peptide sample−MFI Neg control)/(MFI Pos control−MFI Neg control)}×100
Negative control was done without peptide.

HLA-A*0201 [4] = biological target: T1, HLA-A*0201; assay: biochemical; assay type: binding
HLA-A*0201 [5] = biological target: T1, HLA-A*0201; assay: iScore calculation (iTOPIA system software); conditions: multiparametric score of binding, off-rate and affinity
[6] = peptide concentration giving 50% of optimal binding, 10^−4 to 10^−9 M, 21° C. for 18 h, read-out: Affinity (ED50)

HLA-A*0201 class I level on T2 cells ([3]; flow cytometry, FIG. 3A and 3B) | Molecule | % Binding (HLA-A*0201 [1]) [%] | CEM.T2 % Residual Binding [2] [%] | CEM.T2 % Binding [3] [%] | EC50 (HLA-A*0201 [4]; [6]) [nM] | iScore (HLA-A*0201 [5]) | EC50 (HLA-A*0201 [4]; FIG. 2A, peptide concentration 10^−4 to 10^−9 M, read-out: estimated dose to reach 50% maximal binding (ED50)) [nM]
 | CC[C@H](C)[C@H](NC(=O)[C@H](Cc1c[nH]cn1)NC(=O)[C@H](Cc1c[nH]c2ccccc12)NC(=O)[C@H](CC(C)C)NC(=O)[C@H](CC(N)=O)NC(=O)[C@H](CCC(N)=O)NC(=O)[C@@H](N)CC(=O)O)C(=O)NCC(=O)N[C@@H](CCCNC(=N)N)C(=O)O [Peptide 255] | 62 | 0 | 6 | 500 | 0.539 | 
 | CC(C)C[C@H](NC(=O)[C@H](Cc1c[nH]cn1)NC(=O)[C@H](Cc1ccccc1)NC(=O)[C@H](CCC(=O)O)NC(=O)[C@H](CO)NC(=O)[C@@H](NC(=O)[C@@H](NC(=O)[C@H](C)N)C(C)C)[C@@H](C)O)C(=O)N[C@H](C(=O)O)C(C)C [Peptide 203] (H-AVTSEFHLV-OH; N-terminus and C-terminus assumed) | 64 | 0 | 48 | 400 | 0.533 | 
 | CC[C@H](C)[C@H](NC(=O)[C@@H](N)Cc1c[nH]cn1)C(=O)N[C@@H](CC(C)C)C(=O)N[C@@H](Cc1c[nH]cn1)C(=O)N[C@H](C(=O)N[C@@H](CO)C(=O)N[C@@H](Cc1ccccc1)C(=O)N[C@@H](CC(C)C)C(=O)N[C@@H](C)C(=O)O)C(C)C [Peptide 238] (H-HILHVSFLA-OH; N-terminus and C-terminus assumed) | 87 | 66 | 37 | 60 | 1.426 | 
 | CC(C)C[C@H](NC(=O)[C@@H](NC(=O)[C@H](CO)NC(=O)[C@H](Cc1ccc(O)cc1)NC(=O)[C@H](CO)NC(=O)[C@@H](N)CCCNC(=N)N)[C@@H](C)O)C(=O)N[C@H](C(=O)N[C@H](C(=O)N[C@H](C(=O)O)C(C)C)[C@@H](C)O)[C@@H](C)O [Peptide 443] (H-RSYSTLTTV-OH; N-terminus and C-terminus assumed) | 68 | 0 | 37 | 300 | 0.521 | 
 | CC[C@H](C)[C@H](NC(=O)[C@@H](NC(=O)CN)C(C)C)C(=O)N[C@@H](C)C(=O)N[C@@H](C)C(=O)N[C@@H](CC(C)C)C(=O)N[C@@H](CC(C)C)C(=O)N[C@@H](Cc1ccccc1)C(=O)N[C@@H](CS)C(=O)O [Peptide 354] (H-GVIAALLFC-OH; N-terminus and C-terminus assumed) | 61 | 0 | 10 | 90 | 0.845 | 
 | CC(C)C[C@H](NC(=O)[C@H](CCCNC(=N)N)NC(=O)[C@H](C)NC(=O)[C@H](CCC(N)=O)NC(=O)[C@@H](N)Cc1ccccc1)C(=O)N[C@@H](CCCNC(=N)N)C(=O)N[C@@H](CC(C)C)C(=O)N[C@@H](CCCNC(=N)N)C(=O)N[C@H](C(=O)O)C(C)C [Peptide 137] (H-FQARLRLRV-OH; N-terminus and C-terminus assumed) | 69 | 72 | 30 |  | 0.66 | 
 | CSCC[C@H](NC(=O)[C@@H](N)CO)C(=O)N[C@@H](CC(N)=O)C(=O)NCC(=O)N[C@@H](CCC(N)=O)C(=O)N1CCC[C@H]1C(=O)N[C@@H](CC(C)C)C(=O)N[C@H](C(=O)N[C@@H](CS)C(=O)O)[C@@H](C)O [Peptide 215] (H-SMNGQPLTC-OH; N-terminus and C-terminus assumed) | 81 | 0 | 21 | 700 | 0.689 | 
 | CC[C@H](C)[C@H](N)C(=O)N[C@@H](CC(C)C)C(=O)N[C@@H](Cc1c[nH]cn1)C(=O)N[C@H](C(=O)N[C@@H](CO)C(=O)N[C@@H](Cc1ccccc1)C(=O)N[C@@H](CC(C)C)C(=O)N[C@@H](C)C(=O)N[C@@H](CCC(=O)O)C(=O)O)C(C)C [Peptide 239] (H-ILHVSFLAE-OH; N-terminus and C-terminus assumed) | 61 | 0 | 10 | 200 | 0.51 | 
does not increase HLA level on T2 cells | 122: nectin4 nonapeptide with a low iScore; the number represents where the peptide starts in the protein sequence (EGEYECRVS; UniProt Q96NY8 122-130, looked up, fragment) [Peptide 122] |  |  |  |  | low | 
 | CC(C)C[C@H](NC(=O)[C@@H](N)Cc1ccccc1)C(=O)N[C@@H](C)C(=O)N[C@@H](CCC(=O)O)C(=O)N[C@@H](C)C(=O)N[C@@H](CO)C(=O)N[C@H](C(=O)N[C@@H](CCCNC(=N)N)C(=O)NCC(=O)O)C(C)C [Peptide 244] (H-FLAEASVRG-OH; N-terminus and C-terminus assumed) | 78 | 0 | 12 | 700 | 0.533 | 
 | CC(C)C[C@H](NC(=O)[C@H](C)NC(=O)[C@H](C)N)C(=O)N[C@@H](CC(C)C)C(=O)N[C@@H](Cc1ccccc1)C(=O)N[C@@H](CS)C(=O)N[C@@H](CC(C)C)C(=O)N[C@@H](CC(C)C)C(=O)N[C@H](C(=O)O)C(C)C [Peptide 357] (H-AALLFCLLV-OH; N-terminus and C-terminus assumed) | 56 | 18 | 15 | 100 | 0.619 | 
 | CC[C@H](C)[C@H](NC(=O)[C@@H](NC(=O)CNC(=O)[C@@H](NC(=O)[C@@H](NC(=O)[C@@H](N)C(C)C)C(C)C)C(C)C)C(C)C)C(=O)N[C@@H](C)C(=O)N[C@@H](C)C(=O)N[C@@H](CC(C)C)C(=O)O [Peptide 351, VVVGVIAAL] (H-VVVGVIAAL-OH; N-terminus and C-terminus assumed) | 58 |  |  | 30 | 0.784 | 
 | CC(C)C[C@H](NC(=O)CNC(=O)[C@H](Cc1ccc(O)cc1)NC(=O)[C@H](CCCCN)NC(=O)[C@H](CO)NC(=O)[C@H](Cc1c[nH]cn1)NC(=O)[C@H](CC(C)C)NC(=O)[C@H](CC(C)C)NC(=O)[C@H](C)N)C(=O)O [Peptide 80] (H-ALLHSKYGL-OH; N-terminus and C-terminus assumed) | 87 |  |  | 1000 | 0.815 | ~100
